One assay relates to edema of arthritis. Put plainly: Inhibitory effect on edema of arthritis (Zymosan-A/Freund's adjuvant induced paw edema). The format is in vivo. The conditions noted are these: albino rats; for inhibitory effect on edema: test for edema induction. The procedure: In order to observe the inhibitory effect on edema of the pharmaceutical composition of the present invention, 6 albino rats weighing 200 g were used per test group to induce edema by injecting the mixture of 0.5 ml of Zymosan-A (20 mg/ml/kg) and 0.5 ml of Freund's adjuvant into ST36 position of left paw and then observed for the progress of edema for 70 days by taking a photograph before and after induction of edema. The water extract and organic solvent fractions of the pharmaceutical composition of the present invention were respectively constituted in the concentration of 0.6 mg/ml and then orally administered for 14 days to albino rats in an amount of 1 ml per kg of body weight once a day to determine the inhibitory effect on edema. As the test sample, the organic solvent fractions of the pharmaceutical composition including ABE, ABB, ABW, CBE, CBB, CBW, LNE, LNB, LNW, CRB, CRW, SSH and SSW were respectively used. As the result of this test, it was observed that edema was started to induce on day 4 and reached the peak point after about 45 days. The period for this test was established as 70 days after edema induction to observe the inhibitory effect on edema of the extracts of the present invention. As the result, the edema size was measured using a precision gauge.
The inihibitory effect on edema of the compound according to the present invention as measured after 70 days have passed are listed in the following Tables 2 and 3 and FIG. 4.

Assay [1] relates to CAM formation induced by synovial cells. In words: Angiogenesis of synovial cells in chorioallantoic membrane (CAM) of fertilized egg. It is filed as in vivo. The note with it: 10 μg/ml on CAM, synovial cells injected, compared to control group. The procedure:
In order to determine the effect of the organic solvent fractions on the angionenesis of synovial cells using the cells separated in Experiment 2, synovial cells were injected into fertilized egg and then incubated in an incubator at 37° C. for 3 days to observe the formation of chorioallantoic membrane (CAM). In the present state, the fractions separated according to the above method were respectively distributed on CAM at the concentration of 10 μg/ml to observe the degree of CAM decrease.

The subject of assay [2] is NO formation in RAW 264.7 cell lines. In words: NO formation in macrophage cells stimulated by lipid polysaccharide (Greiss reagent). It is filed as cell-based. The conditions noted are these: 10 μg/ml, LPS-stimulated RAW 264.7. The procedure:
FIG. 7 is (a) a bar graph showing the inhibition of NO formation when Raw 264.7 cell lines are treated with the organic solvent fraction of a single drug of the pharmaceutical composition at the concentration of 10 μg/ml for 24 hours an then stimulated with LPS, and (b) a bar graph showing the inhibition of NO formation when the cell lines treated with CBB fraction and LNE fraction as the organic solvent fractions are stimulated with LPS according to the same manner as above (a).
In order to identify whether the extracts obtained according to the present invention can inhibit the synthesis of nitric oxide (NO) as the potent inducer of inflammation in blood due to edema as above, macrophage RAW 264.7 cell lines were distributed in a 96-well microplate at the concentration of 10^3 cells per well and then incubated for 12 hours. Then, lipid polysaccharide was added to the plate at the concentration of 50 ng/well to stimulate the cells for 2 hours. The respective organic solvent fractions were added to the plate to the final concentration of 10 μg/ml followed by addition of 50 μl of Greiss reagent solution, and then allowed to react together at room temperature. Then, the absorbance of the plate was measured at 540 nm of ELISA (enzyme-linked immunosorbent assay) reader. […]

For assay [3], the system named is Raw 264.7 cell lines. In words: Induction of apoptosis of macrophages. It is filed as cell-based. The conditions noted are these: Raw 264.7, 24 hours, microscopy. The procedure: (§1) In order to determine whether the compound identified as the effective component of the pharmaceutical composition separated according to the present invention can induce the apoptosis of Raw 264.7 cell lines as macrophage involved in inflammatory reaction and synovial cells, the cells were distributed on 5% DMEM medium supplemented with penicillin/streptomycin in a 6-well culture dish at the concentration of 10^4 cells and then incubated at 37° C. for 24 hours while adding the extractions as above at the concentration of 10 μg/ml to observe the reaction. Apoptosis was examined by taking a photograph of apoptosis-induced cells under a polarizing microscope of 200 magnifications.

The subject of the next assay is synovial cells. In words: Induction of apoptosis of synovial cell lines. The format is cell-based, human. The conditions noted are these: 24 hours, microscopy. The procedure: The synovial cells separated from outpatients suffering from rheumatoid arthritis were distributed on 5% DMEM medium supplemented with penicillin/streptomycin in a 6-well culture dish at the concentration of 10^4 cells and then incubated for 24 hours at 37° C. to observe the surviving cells. In order to determine the presence or absence of cells and the proliferating state of cells, apoptosis-induced cells were examined by taking their photographs under a phase-contrast microscope of 200 magnifications.
as §1

Assay [4] concerns Raw 264.7 cell lines. In words: Effect on cell cycle of macrophage cells (flow cytometry). The note with it: Raw 264.7, LPS-stimulated, 20 μg/ml. The format is cell-based. The procedure:
(§2) Two kinds of cells were incubated as in Experiment 6 and then washed with PBS (phosphate-buffered saline). LPS was distributed on the respective dishes at the concentration of 50 μg/ml to stimulate the cells. Then, the extract according to the present invention was added over 2 hours so as to make the final concentration of 20 μg/ml. The supernatant was removed, washed with PBS and then treated with trypsin. The cells were harvested, introduced into Eppendorf tube and then centrifuged at 1,000 rpm for 5 minutes to remove the supernatant. The residue was fixed with addition of 1 ml of 100% ethanol. At this time, the mixture of 5 μg/ml propidium iodide and RNAse was separately prepared. The fixed cells were centrifuged to remove the supernatant and then washed once with PBS. Simultaneously, the staining agent as previously prepared above was added to the fixed cells and then warmed in an incubator at 37° C. for 30 minutes. The cells stained with propidium iodide was sealed with foil, stored at 4° C. and then subjected to a flow cytometry analysis using FACscan (Becton Dickinson, Calif.) as the analyzing apparatus.

Another assay deals with synovial cell lines. Put plainly: Effect on cell cycle of synovial cell lines (flow cytometry). It is filed as cell-based, human. The note with it: LPS-stimulated, 20 μg/ml. The procedure:
as §2

The next assay relates to iNOS. Put plainly: Inhibition of iNOS expression at the level of transcription through RT-PCR. The conditions noted are these: FIG. 12a, lanes 1-8; 50 μg/ml, LPS-stimulated. The format is cell-based, human. The procedure:
(§3) In order to identify the ingredient having an inhibitory activity against COX-II and inducible nitric oxide synthetase (iNOS) as the causal factors of rheumatoid arthritis in the extract used as the effective component of the pharmaceutical composition according to the present invention as in Experiment 7 above, the cells were distributed in T75 flask at the concentration of 10^5 cells, incubated for 7 days and then stimulated for 2 hours by introducing LPS in the flask at the concentration of 50 ng/ml. Then, the extract of the present invention was added so as to make the final concentration of 50 μg/ml. The cells were harvested into a 1.5 ml Eppendorf tube and centrifuged with 15,000 rpm at 4° C. for 15 minutes to remove the supernatant. 200 μl of RNAzol solution was added to the residue followed by addition of 50 μl of chloroform. The cells were lysed by careful pippeting, and then centrifuged with 15,000 rpm at 4° C. for 15 minutes to recover a total RNA, which was then precipitated at 4° C. for 15 minutes by adding the same volume of isopropanol, washed once with 75% ethanol and then dried. The cell lysate was dissolved by adding 20 μl of RNase free D2O and then warming the mixture at 60° C. for 30 minutes. […]

The subject of a further assay is COX-II. In words: Inhibition of COX-II expression at the level of transcription through RT-PCR. The format is cell-based, human. The procedure: as §3
Assay [5] concerns cartilage and bone of arthritic joint. In words: Joint rupture in edema-inhibited albino rats by X-ray analysis. The format is in vivo. The conditions noted are these: edema-induced albino rats, oral, about 70 days. The procedure: FIG. 13 is X-ray photograph to show the 70-days inhibitory effect on edema as one of chronic and degenerative osteopathological symptoms of arthritis by treating the induced edema with respective fractions obtained as the organic solvent fractions of the pharmaceutical composition in an amount of 75 μg/ml for 2 weeks via oral route.
The respective water extract and organic solvent fractions were orally administered for 14 days at the concentration of 75 μg/ml to investigate their inhibitory effect on edema as in Experiment 1. The test albino rats were anesthetized to take X-ray photograph.

The test system of assay [6] is nogo-A expressed U-373 MG glioblastoma cell line. In words: Therapeutic effect on vertebral neuroparalysis (neurite regeneration in nogo-A expressing cells). The format is cell-based. The note with it: nogo-A expressed U-373 cell lines, phase-contrast microscopy. An excerpt:
Simultaneously, it was also observed whether neurites can be regenerated by treatment with neuronal growth factor (NGF) or whether the fractions of the present invention can provide the same effect, by taking a photograph with a phase-contrast microscope of 200 magnifications.

A short description of assay [7]: Effect of the compounds separated from Cibotii rhizoma on arthritis. The note with it: summary statement.
A further assay relates to smooth muscle. The note with it: cited from earlier work.

“Also recorded” adds a separate entry of the source.

For “2-O-(9z,12z-octadecadienyl)-3-O-[α-galactopyranosyl-(1″-6′)-O-α-D-galactopyranosyl]glycerol [CBB-13]”, the “edema size, Before treatment” value in the assay on edema of arthritis (Table 3 (unit not given), oral, baseline before treatment, in mm) is on record as 14.4 ± 2. Besides, in the assay on edema of arthritis (Table 3 (unit not given), oral, measured after 70 days, in mm), the “edema size, After treatment” value amounted to 2.5 ± 1. The “inhibitory effect on edema” value with edema of arthritis is recorded as “potent inhibitory effect on edema; also recorded: most significant”. Moreover, the “inhibition of induction of CAM formation” value in assay [1] is listed as “more strongly inhibited the induction of CAM formation”. The “inhibition of NO formation” value in assay [2] is on record as “stronger inhibitory effect on NO formation”. Moreover, the induction of apoptosis entry with Raw 264.7 cell lines [3] and with synovial cells was “more strongly inducing the apoptosis” each time. Further, the entries for the “effect on cell cycle” value with Raw 264.7 cell lines [4] and with synovial cell lines were “induced the apoptosis” and “pattern of G0/G1 arrest”, respectively. Besides, the “effect on iNOS expression (RT-PCR, band near 278 bp)” value in the assay on iNOS is listed as “have an effect on the protein expression”. Moreover, the “effect on COX-II expression (RT-PCR)” value in the assay with COX-II (FIG. 12a, lanes 1-8, 50 μg/ml, LPS-stimulated) was “inhibitory effect at the level of transcription”; with COX-II (FIG. 12c, respective fractions), “strongly inhibit the protein expression”. Besides, the “osteogenesis (X-ray)” value in [5] is “effect of stimulating the osteogenesis”. Moreover, the “rupture of cartilage in arthritic portion (X-ray)” value in assay [5] is given as “inhibits the rupture of cartilage in arthritic portion”. In addition, the regeneration of neurites entry in assay [6] is “neurites were lengthened”. Besides, the “pharmacological effect on arthritis” value in assay [7] was “most excellent pharmacological effect”.

In the case of `Cc1c(O)c2c(c(C)c1CCO)C(=O)C(C)(C)C2` [CBB-11, onitin], the “pharmacological effect on arthritis” value in assay [7] was “moderate pharmacological effect”. Further, the “activity for relaxing smooth muscle” value in the assay with smooth muscle is “activity for relaxing smooth muscle”.

As for `CC[C@H](CC[C@@H](C)[C@H]1CC[C@H]2[C@@H]3CC=C4C[C@@H](O[C@@H]5O[C@H](CO)[C@@H](O)[C@H](O)[C@H]5O)CC[C@]4(C)[C@H]3CC[C@]12C)C(C)C` [CBB-12, daucosterol], the “inhibitory effect on edema” value with edema of arthritis is listed as “potent inhibitory effect on edema”.

Values taken from patent publication US6531582B1, “2-O-(9z,12z-octadecadienoyl)-3-O-[α-D-galactopyranosyl-(1″-6′)-O-α-D-galactopyranosyl]glycerol and pharmaceutical composition containing the same” (priority 2000, dated 2003).
